The target in assay [1] is T1, secreted soluble GalNAc-T4 (Homo sapiens, UniProt Q8N4A0).
T1 construct: 6xHis (N); thrombin cleavage site (N); T7 antibody site (N); made in house; host or cells: baculovirus (pAcGP67A), High Five insect cells
In words: Inhibition of secreted soluble GalNAc-T4 (sT4) binding to GalNAc-MUC1 glycopeptide, ELISA. How it is done: (§1) Direct binding ELISA assay was developed as follows: Polystyrene microtiter plates (Maxisorb, Nunc, Denmark) were coated with peptides or enzymatically glycosylated glycopeptides in PBS overnight at 4° C. Plates were washed and blocked with 0.1% Tween20 and 0.2% BSA in PBS for 1 h at room temperature, followed by incubation with biotinylated proteins in PBS with 0.05% Tween20 for 2 h at room temperature. After four washes with PBS, plates were incubated with 1:2,000 dilution streptavidin-HRP (Sigma) in PBS for 30 min at room temperature and washed four times with PBS. Development was performed with 0.5 mg/ml o-phenylenediamine and 0.02% H2O2 at room temperature for 15 min, and reaction stopped by adding 100 μl/well of 0.5 N H2SO4. Competitive inhibition assays were done at end-point titers of GalNAc-transferase proteins with one hour preincubations with inhibitor.
(§2) Inhibition experiments were used to further define the binding specificity of GalNAc-T2 and -T4 secreted soluble enzymes as well as lectin domains compared to Helix Pomatia lectin (Table IV).
In general terms: ELISA stands for enzyme-linked immunosorbent assay.

The target in assay [2] is T2, secreted soluble GalNAc-T2 (Homo sapiens, UniProt Q10471).
T2 construct: 6xHis (N); thrombin cleavage site (N); T7 antibody site (N); made in house; host or cells: baculovirus (pAcGP67A), High Five insect cells
In words: Inhibition of secreted soluble GalNAc-T2 (sT2) binding to GalNAc-MUC1 glycopeptide, ELISA. How it is done: as §1, §2

Another assay deals with T3, GalNAc-T4 lectin domain (Homo sapiens, UniProt Q8N4A0).
T3 construct: comprises amino acid residues 405-578 of GALNT4; made in house; host or cells: baculovirus (pAcGP67-A), virus made in Sf9, protein produced in High Five insect cells
In words: Inhibition of GalNAc-T4 lectin domain (T4ld) binding to GalNAc-MUC1 glycopeptide, ELISA. Here is the method: as §1
(§3) In binding studies using lectins without biotinylation antibodies to the HIS-tag and the T7-tag, or in some experiments antibodies raised to GalNAc-T2 and -T4 enzymes were used to detect binding.
as §2

The target of the next assay is T4, GalNAc-T2 lectin domain (Homo sapiens, UniProt Q10471).
T4 construct: comprises amino acid residues 408-571 of GALNT2; made in house; host or cells: baculovirus (pAcGP67-A), virus made in Sf9, protein produced in High Five insect cells
T4 sequence (Q10471 408-571): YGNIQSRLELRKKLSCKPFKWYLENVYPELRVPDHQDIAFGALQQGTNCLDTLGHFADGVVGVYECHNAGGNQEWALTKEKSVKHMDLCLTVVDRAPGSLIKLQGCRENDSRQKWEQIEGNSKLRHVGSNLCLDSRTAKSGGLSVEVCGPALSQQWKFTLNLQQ
In words: Inhibition of GalNAc-T2 lectin domain (T2ld) binding to GalNAc-MUC1 glycopeptide, ELISA. How it is done: as §1, §3, §2

Drawing on patent publication US20080038809A1, “ISOLATED LECTIN POLYPEPTIDES CONSISTING OF TRUNCATED […] UDP-GalNAc:POLYPEPTIDE N- ACETYLGALACTOSAMINYLTRANSFERASES” (GLYCOZYM APS, priority 2002, published 2008), this text covers IC50 for 3 compounds.

T2 sequence (Q10471 52-571 limits assumed): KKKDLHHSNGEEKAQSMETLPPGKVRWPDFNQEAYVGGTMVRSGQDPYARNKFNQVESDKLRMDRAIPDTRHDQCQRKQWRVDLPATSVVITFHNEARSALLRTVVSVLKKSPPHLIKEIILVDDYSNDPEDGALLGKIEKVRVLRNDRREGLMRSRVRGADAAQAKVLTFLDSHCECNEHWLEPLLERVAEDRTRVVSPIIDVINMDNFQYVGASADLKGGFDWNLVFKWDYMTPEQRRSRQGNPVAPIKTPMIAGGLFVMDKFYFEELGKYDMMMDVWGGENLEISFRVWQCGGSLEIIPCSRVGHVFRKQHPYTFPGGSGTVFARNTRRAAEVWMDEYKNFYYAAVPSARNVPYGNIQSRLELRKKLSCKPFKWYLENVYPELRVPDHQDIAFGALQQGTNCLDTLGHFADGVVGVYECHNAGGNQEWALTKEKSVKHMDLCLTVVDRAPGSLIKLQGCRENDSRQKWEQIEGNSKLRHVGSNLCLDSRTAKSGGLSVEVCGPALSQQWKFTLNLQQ
T1 sequence (Q8N4A0 36-578 limits assumed): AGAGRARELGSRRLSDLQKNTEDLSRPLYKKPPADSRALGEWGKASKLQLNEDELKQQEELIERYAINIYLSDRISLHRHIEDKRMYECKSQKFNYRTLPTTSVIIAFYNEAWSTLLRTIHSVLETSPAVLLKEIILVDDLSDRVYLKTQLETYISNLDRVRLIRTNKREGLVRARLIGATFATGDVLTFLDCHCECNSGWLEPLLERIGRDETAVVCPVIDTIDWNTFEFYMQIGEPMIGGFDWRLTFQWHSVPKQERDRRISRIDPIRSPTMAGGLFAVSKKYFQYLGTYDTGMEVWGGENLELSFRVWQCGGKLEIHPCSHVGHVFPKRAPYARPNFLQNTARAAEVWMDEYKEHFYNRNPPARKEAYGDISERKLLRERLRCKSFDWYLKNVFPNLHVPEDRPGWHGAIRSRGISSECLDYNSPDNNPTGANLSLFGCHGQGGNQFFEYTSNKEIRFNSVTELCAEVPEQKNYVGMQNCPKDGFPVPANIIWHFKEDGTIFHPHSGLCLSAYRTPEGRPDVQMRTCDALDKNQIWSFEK
T3 sequence (Q8N4A0 405-578): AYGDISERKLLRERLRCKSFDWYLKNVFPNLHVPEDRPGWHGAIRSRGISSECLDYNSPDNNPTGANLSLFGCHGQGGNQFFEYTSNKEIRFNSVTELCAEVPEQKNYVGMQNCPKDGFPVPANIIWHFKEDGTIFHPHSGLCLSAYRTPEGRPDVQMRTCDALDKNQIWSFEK

By IC50 is commonly meant the concentration that inhibits the measured activity by half. Higher therefore signals weaker potency in that assay. For `OC[C@H]1O[C@@H](O[C@H]2[C@H](O)[C@@H](O)C(O)O[C@@H]2CO)[C@H](O)[C@@H](O)[C@H]1O` (stereo partly shown) [Lactose], the half-inhibitory concentration (IC50) (in assay [1]; in assay [2]; on GalNAc-T4 lectin domain; on GalNAc-T2 lectin domain) was > 100 mM throughout.
With `CC(=O)N[C@H]1[C@@H](Oc2ccccc2[N+](=O)[O-])O[C@H](CO)[C@H](O)[C@@H]1O` [oNPαGalNAc], the IC50 was determined as 0.5 mM in assay [1], 7 mM in assay [2] and 5 mM on GalNAc-T4 lectin domain.
With `CC(=O)N[C@H]1[C@@H](Oc2ccc([N+](=O)[O-])cc2)O[C@H](CO)[C@H](O)[C@@H]1O` [pNPαGalNAc], the IC50 is 1 mM in assay [1], > 10 mM in assay [2] and > 10 mM on GalNAc-T2 lectin domain.
